Key:
presbyopic subjects [1] = experiment: Near vision acuity after topical instillation (near test card at 16 inches; Reading vs. Baseline at 40 cm; onset, duration, Efficacy Index); assay type: in vivo, human
From the text: (§1) Subject is an emmetrope over the age of 45 with a baseline near vision of 20.100 and baseline distance vision of 20.20. Topical administration to the eye of 1% w/v pilocarpine in saline solution results in an improvement of near vision to 20.40 (8a), however this improvement comes at the expense of a reduction in distance vision to 20.100 (8b). […] A proper drug carrier can also have a beneficial effect.
(§2) 1.75% w/v aceclidine was formulated in 0.9% w/v saline with 0.02% w/v BAK. Drops were instilled binocularly into a subject. Near vision testing was performed at 16 inches on a Precision Vision 16″ near test card. All near vision testing was binocular.
(§3) As aceclidine is an […], the clinical effectiveness may vary with different ratios. For the present studies a nearly exact 50:50 ratio of stereoisomers was measured as best determined by polarimetry.
In brief, the score is calculated by multiplying the lines of improvement in near visual acuity by the number of hours the improvement lasts. For example a score of: 5 is equal to +1 lines of improvement in near visual acuity for 5 hours; 10 is equal to +1.5 lines of improvement for 6.7 hours; 15 is equal to 2 lines of improvement for 7.5 hours; 20 is equal to 2.5 lines of improvement for 8 hours; 25 is equal to 3+ lines of improvement for 8.3 hours and 35 is equal to 3.75+ lines of improvement for 9 hours.
2 subjects instilled 2 drops each of the above formulation in each eye about 5 minutes apart.

presbyopic subjects [2] = experiment: Distance vision acuity after topical instillation; assay type: in vivo, human; settings: baseline distance 20.20
From the text: as §1, §2, §3

[3] = 1% w/v pilocarpine or 1.55% w/v aceclidine in saline solution, emmetrope over 45, baseline near 20.100
[4] = 1% w/v pilocarpine or 1.55% w/v aceclidine in saline solution

SMILES	near vision (FIG. 1) (presbyopic subjects [1]; [3])	near vision (FIG. 1) (presbyopic subjects [1]; 1% w/v pilocarpine with addition of 0.015% w/v tropicamide, baseline near 20.100)	distance vision (FIG. 1) (presbyopic subjects [2]; [4])	distance vision (FIG. 1) (presbyopic subjects [2]; 1% w/v pilocarpine with addition of 0.015% w/v tropicamide)	time period of near vision improvement (FIG. 1) (presbyopic subjects [1]; 1.55% w/v aceclidine in saline solution) [h]	near vision improvement (presbyopic subjects [1]; 1.75% aceclidine, 2.5% mannitol, 0.01% tropicamide, 5% polysorbate 80)	near vision (FIG. 1) (presbyopic subjects [1]; aceclidine in carrier with 0.042% w/v tropicamide)	near vision (FIG. 1) (presbyopic subjects [1]; aceclidine in carrier: 5.5% HPβCD, 0.75% CMC, 0.25% NaCl, 0.01% BAK)
CC[C@@H]1C(=O)OC[C@@H]1Cc1cncn1C [pilocarpine]	20.40	20.25	20.100	20.55				
CC(=O)OC1CN2CCC1CC2 (racemic) [Aceclidine, aceclidine]	20.40		without any effect on the baseline distance vision		6	up to 3 lines of vision acuity	20.15	< 20.20

Source: patent publication US20190321334A1, “COMPOSITIONS AND METHODS FOR THE TREATMENT OF PRESBYOPIA” (priority 2018, published 2019)
